# Results reported in PubChem BioAssay (NCI).
#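 Five concentrations, 48 hours, 96-well plates. The concentration for full growth arrest is given as TGI.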
# Assays:
# Experiment in all cases: NCI-60 cell line screen, 48 h
# TK-10 renal = test system: TK-10 renal
# OVCAR-3 ovarian = test system: OVCAR-3 ovarian
# OVCAR-8 ovarian = test system: OVCAR-8 ovarian
# HCT-116 colon = test system: HCT-116 colon
# HT29 colon = test system: HT29 colon
# HOP-62 NSCLC = test system: HOP-62 NSCLC
# UACC-62 melanoma = test system: UACC-62 melanoma
# IGROV1 ovarian = test system: IGROV1 ovarian
# UACC-257 melanoma = test system: UACC-257 melanoma
# A498 renal = test system: A498 renal
# SN12C renal = test system: SN12C renal
# RXF 393 renal = test system: RXF 393 renal
# 786-0 renal = test system: 786-0 renal
# SK-MEL-2 melanoma = test system: SK-MEL-2 melanoma
# SF-539 CNS = test system: SF-539 CNS
# HCT-15 colon = test system: HCT-15 colon
# SW-620 colon = test system: SW-620 colon
# SNB-75 CNS = test system: SNB-75 CNS
# LXFL 529 NSCLC = test system: LXFL 529 NSCLC
# SK-MEL-28 melanoma = test system: SK-MEL-28 melanoma
# U251 CNS = test system: U251 CNS
# NCI-H23 lung = test system: NCI-H23 lung
# XF 498 CNS = test system: XF 498 CNS
# SK-OV-3 ovarian = test system: SK-OV-3 ovarian
# HCC-2998 colon = test system: HCC-2998 colon
# ACHN renal = test system: ACHN renal
# SR leukemia = test system: SR leukemia
# MALME-3M melanoma = test system: MALME-3M melanoma
# SNB-19 CNS = test system: SNB-19 CNS
# A549 NSCLC = test system: A549 NSCLC
# MOLT-4 leukemia = test system: MOLT-4 leukemia
# RPMI-8226 leukemia = test system: RPMI-8226 leukemia
# RXF-631 renal = test system: RXF-631 renal
# OVCAR-4 ovarian = test system: OVCAR-4 ovarian
# SF-295 CNS = test system: SF-295 CNS
# M19-MEL melanoma = test system: M19-MEL melanoma
# SNB-78 CNS = test system: SNB-78 CNS
# HOP-18 NSCLC = test system: HOP-18 NSCLC
# SF-268 CNS = test system: SF-268 CNS
# DMS 114 small cell lung = test system: DMS 114 small cell lung
# CAKI-1 renal = test system: CAKI-1 renal
# UO-31 renal = test system: UO-31 renal
# HOP-92 NSCLC = test system: HOP-92 NSCLC
# DLD-1 colon = test system: DLD-1 colon
# COLO 205 colon = test system: COLO 205 colon
# NCI-H460 lung = test system: NCI-H460 lung
# SK-MEL-5 melanoma = test system: SK-MEL-5 melanoma
# M14 melanoma = test system: M14 melanoma
# EKVX NSCLC = test system: EKVX NSCLC
# OVCAR-5 ovarian = test system: OVCAR-5 ovarian
# DMS 273 small cell lung = test system: DMS 273 small cell lung
# LOX IMVI melanoma = test system: LOX IMVI melanoma
# K-562 leukemia = test system: K-562 leukemia
# HL-60(TB) leukemia = test system: HL-60(TB) leukemia
# KM12 colon = test system: KM12 colon
# KM20L2 colon = test system: KM20L2 colon
# NCI-H522 lung = test system: NCI-H522 lung
# CCRF-CEM leukemia = test system: CCRF-CEM leukemia
structure (smiles),measurement,setting,value
CN(C)C(=O)Oc1c(-c2ccccc2)c(=O)n2c3ccccc3n3c(=O)n(C)c(=O)c1c23,TGI,TK-10 renal,> 100 µM
same,TGI,OVCAR-3 ovarian,> 100 µM
same,TGI,OVCAR-8 ovarian,> 100 µM
same,TGI,HCT-116 colon,> 100 µM
same,TGI,HT29 colon,> 100 µM
same,TGI,HOP-62 NSCLC,> 100 µM
same,TGI,UACC-62 melanoma,> 100 µM
same,TGI,IGROV1 ovarian,> 100 µM
same,TGI,UACC-257 melanoma,> 100 µM
same,TGI,A498 renal,> 100 µM
same,TGI,SN12C renal,> 100 µM
same,TGI,RXF 393 renal,> 100 µM
same,TGI,786-0 renal,> 100 µM
same,TGI,SK-MEL-2 melanoma,> 100 µM
same,TGI,SF-539 CNS,> 100 µM
same,TGI,HCT-15 colon,> 100 µM
same,TGI,SW-620 colon,> 100 µM
same,TGI,SNB-75 CNS,> 100 µM
same,TGI,LXFL 529 NSCLC,> 100 µM
same,TGI,SK-MEL-28 melanoma,> 100 µM
same,TGI,U251 CNS,> 100 µM
same,TGI,NCI-H23 lung,> 100 µM
same,TGI,XF 498 CNS,> 100 µM
same,TGI,SK-OV-3 ovarian,> 100 µM
same,TGI,HCC-2998 colon,> 100 µM
same,TGI,ACHN renal,> 100 µM
same,TGI,SR leukemia,> 100 µM
same,TGI,MALME-3M melanoma,> 100 µM
same,TGI,SNB-19 CNS,> 100 µM
same,TGI,A549 NSCLC,> 100 µM
same,TGI,MOLT-4 leukemia,> 100 µM
same,TGI,RPMI-8226 leukemia,> 100 µM
same,TGI,RXF-631 renal,> 100 µM
same,TGI,OVCAR-4 ovarian,> 100 µM
same,TGI,SF-295 CNS,> 100 µM
same,TGI,M19-MEL melanoma,> 100 µM
same,TGI,SNB-78 CNS,> 100 µM
same,TGI,HOP-18 NSCLC,> 100 µM
same,TGI,SF-268 CNS,> 100 µM
same,TGI,DMS 114 small cell lung,> 100 µM
same,TGI,CAKI-1 renal,> 100 µM
same,TGI,UO-31 renal,> 100 µM
same,TGI,HOP-92 NSCLC,> 100 µM
same,TGI,DLD-1 colon,> 100 µM
same,TGI,COLO 205 colon,> 100 µM
same,TGI,NCI-H460 lung,> 100 µM
same,TGI,SK-MEL-5 melanoma,> 100 µM
same,TGI,M14 melanoma,> 100 µM
same,TGI,EKVX NSCLC,> 100 µM
same,TGI,OVCAR-5 ovarian,> 100 µM
same,TGI,DMS 273 small cell lung,> 100 µM
same,TGI,LOX IMVI melanoma,> 100 µM
O=C1/C(=C/c2ccc(Br)cc2)CCC/C1=C\c1ccc(Br)cc1,TGI,TK-10 renal,83.1 µM
same,TGI,OVCAR-3 ovarian,15.9 µM
same,TGI,OVCAR-8 ovarian,22 µM
same,TGI,HCT-116 colon,3.1 µM
same,TGI,K-562 leukemia,21.2 µM
same,TGI,HT29 colon,4.27 µM
same,TGI,HOP-62 NSCLC,53.3 µM
same,TGI,UACC-62 melanoma,39.9 µM
same,TGI,IGROV1 ovarian,38.7 µM
same,TGI,UACC-257 melanoma,16.2 µM
same,TGI,A498 renal,16.1 µM
same,TGI,SN12C renal,53 µM
same,TGI,RXF 393 renal,18.9 µM
same,TGI,786-0 renal,33.8 µM
same,TGI,SK-MEL-2 melanoma,63 µM
same,TGI,SF-539 CNS,33.8 µM
same,TGI,HCT-15 colon,31.1 µM
same,TGI,SW-620 colon,89 µM
same,TGI,SNB-75 CNS,69.3 µM
same,TGI,LXFL 529 NSCLC,14.7 µM
same,TGI,SK-MEL-28 melanoma,14.1 µM
same,TGI,U251 CNS,20.5 µM
same,TGI,NCI-H23 lung,21.2 µM
same,TGI,XF 498 CNS,52 µM
same,TGI,SK-OV-3 ovarian,> 100 µM
same,TGI,HCC-2998 colon,6.48 µM
same,TGI,ACHN renal,29.8 µM
same,TGI,HL-60(TB) leukemia,13.5 µM
same,TGI,MALME-3M melanoma,51 µM
same,TGI,SNB-19 CNS,46 µM
same,TGI,A549 NSCLC,35.3 µM
same,TGI,MOLT-4 leukemia,23.5 µM
same,TGI,RPMI-8226 leukemia,5.26 µM
same,TGI,RXF-631 renal,18.1 µM
same,TGI,OVCAR-4 ovarian,36.2 µM
same,TGI,M19-MEL melanoma,32.9 µM
same,TGI,SNB-78 CNS,58.3 µM
same,TGI,HOP-18 NSCLC,78.6 µM
same,TGI,KM12 colon,10.9 µM
same,TGI,SF-268 CNS,> 100 µM
same,TGI,DMS 114 small cell lung,38.7 µM
same,TGI,CAKI-1 renal,> 100 µM
same,TGI,UO-31 renal,24.7 µM
same,TGI,KM20L2 colon,> 100 µM
same,TGI,DLD-1 colon,31.6 µM
same,TGI,COLO 205 colon,28.4 µM
same,TGI,NCI-H460 lung,28.8 µM
same,TGI,SK-MEL-5 melanoma,27.1 µM
same,TGI,M14 melanoma,11.5 µM
same,TGI,EKVX NSCLC,62.5 µM
same,TGI,NCI-H522 lung,39.2 µM
same,TGI,DMS 273 small cell lung,15.7 µM
same,TGI,CCRF-CEM leukemia,24.4 µM
